From patent US20240174671A1, “New 2,3-Dihydro-1H-pyrrolo[3,2-b]pyridine Derivatives as Sigma Ligands” (ACONDICIONAMIENTO TARRASENSE, priority 2021, published 2024)
Read-outs that look alike come from different tables or passages of the source.

Key:
[1] = biological target: T1, human σ2/TMEM97 receptor (Homo sapiens, UniProt Q5BJF2); experiment: Binding assay to human σ2/TMEM97 receptor ([3H]-DTG); settings: transfected HEK-293 membranes, 10 nM [3H]-DTG, 25° C., 120 minutes; read-out: Binding σ-[…] (binding to σ2-receptor expressed as Ki)
T1 construct: expressed in transfected cells; host or cells: HEK-293
In short: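 Membranes from transfected HEK-293 cells incubated with 10 nM [3H]-DTG in 50 mM Tris-HCl pH 8.0, 120 min at 25 °C; non-specific binding defined with 10 μM haloperidol. Bound radioactivity counted after filtration; compounds tested as % inhibition at 1 or 10 μM or at five concentrations for Ki.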

[2] = biological target: T2, human σ1 receptor (Homo sapiens, UniProt Q99720); experiment: Human σ1 receptor radioligand assay ([3H](+)-pentazocine); assay type: binding
T2 construct: expressed in transfected cells; host or cells: HEK-293
In short: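 Binding used [3H](+)-pentazocine, 120 min at 37° C, with non-specific binding defined by 10 μM haloperidol. Bound radioligand was collected by filtration, washed with ice-cold 10 mM Tris-HCl pH 7.4 and counted by scintillation.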

[3] = transfected HEK-293 membranes, 5 nM [3H](+)-pentazocine, 37° C., 120 minutes, read-out: Binding σ-[…] (binding to σ1-receptor expressed as Ki)

T1 sequence (Q5BJF2 whole entry): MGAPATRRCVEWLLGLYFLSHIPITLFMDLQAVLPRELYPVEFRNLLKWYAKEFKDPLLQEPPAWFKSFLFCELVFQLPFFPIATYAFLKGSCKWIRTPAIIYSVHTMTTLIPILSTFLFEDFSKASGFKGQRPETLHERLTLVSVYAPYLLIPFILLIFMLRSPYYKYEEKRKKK
T2 sequence (Q99720 whole entry): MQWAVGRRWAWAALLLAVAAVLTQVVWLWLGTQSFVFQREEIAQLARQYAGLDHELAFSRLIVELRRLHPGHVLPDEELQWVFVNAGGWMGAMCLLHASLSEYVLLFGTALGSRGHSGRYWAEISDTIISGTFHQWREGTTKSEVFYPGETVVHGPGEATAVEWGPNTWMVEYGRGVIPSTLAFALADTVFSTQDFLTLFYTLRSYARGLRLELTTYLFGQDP

Row | SMILES | Ki [1] | Ki [2, 3] | Ki [2]
1 | Cc1ccc2c(n1)C(C)(C)CN2C(=O)NCC(c1ccccc1F)N(C)C (stereo not shown) [Example 19, N-(2-(dimethylamino)-2-(2-fluorophenyl)ethyl)-3,3,5-trimethyl-2,3-dihydro-1H-pyrrolo[3,2-b]pyridine-1-carboxamide] | > 1 µM | 0.1 to 0.5 µM | –
2 | CN(CCc1ccccc1)[C@H]1CCCN(C(=O)N2CCc3ncccc32)C1 [Example 53, (S)-(2,3-dihydro-1H-pyrrolo[3,2-b]pyridin-1-yl)(3-(methyl(phenethyl)amino)piperidin-1-yl)methanone] | 0.1 to 0.5 µM | 0.1 to 0.5 µM | –
3 | Cc1ccc2c(n1)C(C)(C)CN2C(=O)NCC1CN(Cc2ccccc2)C1 [Example 82, N-((1-benzylazetidin-3-yl)methyl)-3,3,5-trimethyl-2,3-dihydro-1H-pyrrolo[3,2-b]pyridine-1-carboxamide] | < 0.1 µM | 0.1 to 0.5 µM | –
4 | Cc1ccc2c(n1)C(C)(C)CN2C(=O)NC1CCN(Cc2ccc(C#N)cc2)CC1 [Example 24, N-(1-(4-cyanobenzyl)piperidin-4-yl)-3,3,5-trimethyl-2,3-dihydro-1H-pyrrolo[3,2-b]pyridine-1-carboxamide] | > 1 µM | < 0.1 µM | –
5 | Cc1ccc2c(n1)C(C)(C)CN2C(=O)NCC(c1ccccc1)N1CCCC1 (stereo not shown) [Example 7, 3,3,5-trimethyl-N-(2-phenyl-2-(pyrrolidin-1-yl)ethyl)-2,3-dihydro-1H-pyrrolo[3,2-b]pyridine-1-carboxamide] | > 1 µM | 0.1 to 0.5 µM | –
6 | CN(Cc1ccc(C#N)c(F)c1)C1CCN(C(=O)N2CC(C)(C)c3ncccc32)CC1 [Example 87, 4-(((1-(3,3-dimethyl-2,3-dihydro-1H-pyrrolo[3,2-b]pyridine-1-carbonyl)piperidin-4-yl)(methyl)amino)methyl)-2-fluorobenzonitrile] | < 0.1 µM | 0.5 to 1 µM | –
7 | Cc1ccc2c(n1)C(C)(C)CN2C(=O)N1CCC[C@H](N(C)CCc2ccccc2)C1 [Example 54, (S)-(3-(methyl(phenethyl)amino)piperidin-1-yl)(3,3,5-trimethyl-2,3-dihydro-1H-pyrrolo[3,2-b]pyridin-1-yl)methanone] | < 0.1 µM | – | 0.1 to 0.5 µM
8 | COc1ccc2c(n1)C(C)(C)CN2C(=O)NC[C@@H](c1ccccc1)N(C)C [Example 17, (R)—N-(2-(dimethylamino)-2-phenylethyl)-5-methoxy-3,3-dimethyl-2,3-dihydro-1H-pyrrolo[3,2-b]pyridine-1-carboxamide] | > 1 µM | < 0.1 µM | –
9 | CN(Cc1ccccc1)C1CCN(C(=O)N2CC(C)(C)c3nc(C#N)ccc32)CC1 [Example 40, 1-(4-(benzyl(methyl)amino)piperidine-1-carbonyl)-3,3-dimethyl-2,3-dihydro-1H-pyrrolo[3,2-b]pyridine-5-carbonitrile] | < 0.1 µM | < 0.1 µM | –
10 | Cc1ccc2c(n1)C(C)(C)CN2C(=O)N1CCC(N(C)Cc2ccccn2)CC1 [Example 73, (4-(methyl(pyridin-2-ylmethyl)amino)piperidin-1-yl)(3,3,5-trimethyl-2,3-dihydro-1H-pyrrolo[3,2-b]pyridin-1-yl)methanone] | 0.5 to 1 µM | > 1 µM | –
11 | Cc1ccc2c(n1)C(C)(C)CN2C(=O)NC[C@@H](c1cccc(F)c1)N(C)C [Example 34, (R)—N-(2-(dimethylamino)-2-(3-fluorophenyl)ethyl)-3,3,5-trimethyl-2,3-dihydro-1H-pyrrolo[3,2-b]pyridine-1-carboxamide] | > 1 µM | 0.1 to 0.5 µM | –
12 | Cc1ccc2c(n1)C(C)(C)CN2C(=O)NC[C@@H](c1ccccc1)N(C)C [Example 4, (R)—N-(2-(dimethylamino)-2-phenylethyl)-3,3,5-trimethyl-2,3-dihydro-1H-pyrrolo[3,2-b]pyridine-1-carboxamide] | > 1 µM | – | < 0.1 µM
13 | Cc1ccc2c(n1)C(C)(C)CN2C(=O)NC1CCN(CC(C)C)CC1 [Example 41, N-(1-isobutylpiperidin-4-yl)-3,3,5-trimethyl-2,3-dihydro-1H-pyrrolo[3,2-b]pyridine-1-carboxamide] | > 1 µM | 0.1 to 0.5 µM | –
14 | Cc1ccc2c(n1)C(C)(C)CN2C(=O)NC1CCN(Cc2ccc(F)cc2)CC1 [Example 22, N-(1-(4-fluorobenzyl)piperidin-4-yl)-3,3,5-trimethyl-2,3-dihydro-1H-pyrrolo[3,2-b]pyridine-1-carboxamide] | 0.5 to 1 µM | < 0.1 µM | –

More lines, main results first:

Row | Ki [1] | Ki [2, 3] | SMILES | Ki [2]
15 | < 0.1 µM | > 1 µM | CC1(C)CN(C(=O)N2CCC3(CCN(Cc4ccc(C(F)(F)F)nc4)CC3)C2)c2cccnc21 [Example 155, (3,3-dimethyl-2,3-dihydro-1H-pyrrolo[3,2-b]pyridin-1-yl)(8-((6-(trifluoromethyl)pyridin-3-yl)methyl)-2,8-diazaspiro[4.5]decan-2-yl)methanone] | –
16 | < 0.1 µM | < 0.1 µM | Cc1ccc2c(n1)C(C)(C)CN2C(=O)[C@H]1CC[C@H](N(C)Cc2ccc(F)c(C#N)c2)CC1 [Example 181, 2-fluoro-5-((methyl((1r,4r)-4-(3,3,5-trimethyl-2,3-dihydro-1H-pyrrolo[3,2-b]pyridine-1-carbonyl)cyclohexyl)amino)methyl)benzonitrile] | –
17 | > 1 µM | < 0.1 µM | Cc1ccc2c(n1)C(C)(C)CN2C(=O)C1CN(Cc2ccccc2)C1 [Example 131, (1-benzylazetidin-3-yl)(3,3,5-trimethyl-2,3-dihydro-1H-pyrrolo[3,2-b]pyridin-1-yl)methanone] | –
18 | 0.1 to 0.5 µM | < 0.1 µM | Cc1ccc2c(n1)C(C)(C)CN2C(=O)CC1CCN(Cc2ccccc2)CC1 [Example 130, 2-(1-benzylpiperidin-4-yl)-1-(3,3,5-trimethyl-2,3-dihydro-1H-pyrrolo[3,2-b]pyridin-1-yl)ethanone] | –
19 | < 0.1 µM | < 0.1 µM | CC1(C)CN(C(=O)N2CCC3(CCN(Cc4ccc(F)cc4)CC3)C2)c2cccnc21 [Example 149, (3,3-dimethyl-2,3-dihydro-1H-pyrrolo[3,2-b]pyridin-1-yl)(8-(4-fluorobenzyl)-2,8-diazaspiro[4.5]decan-2-yl)methanone] | –
20 | < 0.1 µM | < 0.1 µM | Cc1ccc2c(n1)C(C)(C)CN2C(=O)[C@H]1CC[C@H](N(C)Cc2ccc(C(F)(F)F)nc2)CC1 [Example 184, ((1r,4r)-4-(methyl((6-(trifluoromethyl)pyridin-3-yl)methyl)amino)cyclohexyl)(3,3,5-trimethyl-2,3-dihydro-1H-pyrrolo[3,2-b]pyridin-1-yl)methanone] | –
21 | < 0.1 µM | > 1 µM | Cc1ccc2c(n1)C(C)(C)CN2C(=O)N1CCC2(CCN(CCC3CCOCC3)CC2)C1 [Example 108, (8-(2-(tetrahydro-2H-pyran-4-yl)ethyl)-2,8-diazaspiro[4.5]decan-2-yl)(3,3,5-trimethyl-2,3-dihydro-1H-pyrrolo[3,2-t]pyridin-1-yl)methanone] | –
22 | < 0.1 µM | 0.1 to 0.5 µM | Cc1ccc2c(n1)C(C)(C)CN2C(=O)N1CCC2(CCN(CC3CCOCC3)CC2)CC1 [Example 161, (9-((tetrahydro-2H-pyran-4-yl)methyl)-3,9-diazaspiro[5.5]undecan-3-yl)(3,3,5-trimethyl-2,3-dihydro-1H-pyrrolo[3,2-b]pyridin-1-yl)methanone] | –
23 | < 0.1 µM | < 0.1 µM | Cc1ccc2c(n1)C(C)(C)CN2C(=O)[C@H]1CC[C@H](N(C)Cc2ccc(F)cc2)CC1 [Example 182, ((1r,4r)-4-((4-fluorobenzyl)(methyl)amino)cyclohexyl)(3,3,5-trimethyl-2,3-dihydro-1H-pyrrolo[3,2-b]pyridin-1-yl)methanone] | –
24 | > 1 µM | < 0.1 µM | Cc1ccc2c(n1)C(C)(C)CN2C(=O)[C@@H]1CN(Cc2ccccc2)C[C@H]1C [Example 124, ((3S,4S)-1-benzyl-4-methylpyrrolidin-3-yl)(3,3,5-trimethyl-2,3-dihydro-1H-pyrrolo[3,2-b]pyridin-1-yl)methanone] | –
25 | 0.1 to 0.5 µM | 0.1 to 0.5 µM | Cc1ccc2c(n1)C(C)(C)CN2C(=O)[C@H]1C[C@@H](N(C)Cc2ccccc2)C1 [Example 139, ((1s,3s)-3-(benzyl(methyl)amino)cyclobutyl)(3,3,5-trimethyl-2,3-dihydro-1H-pyrrolo[3,2-b]pyridin-1-yl)methanone] | –
26 | < 0.1 µM | < 0.1 µM | CC1(C)CN(C(=O)N2CCC3(CCN(Cc4cc(F)ccc4F)CC3)C2)c2cccnc21 [Example 148, (8-(2,5-difluorobenzyl)-2,8-diazaspiro[4.5]decan-2-yl)(3,3-dimethyl-2,3-dihydro-1H-pyrrolo[3,2-b]pyridin-1-yl)methanone] | –
27 | < 0.1 µM | > 1 µM | Cc1ccc2c(n1)C(C)(C)CN2C(=O)N1CCC2(CCN(Cc3cccnc3)CC2)C1 [Example 98, (8-(pyridin-3-ylmethyl)-2,8-diazaspiro[4.5]decan-2-yl)(3,3,5-trimethyl-2,3-dihydro-1H-pyrrolo[3,2-b]pyridin-1-yl)methanone] | –
28 | 0.1 to 0.5 µM | > 1 µM | CC1(C)CN(C(=O)N2CCC3(CCN(Cc4c(F)cccc4F)CC3)C2)c2cccnc21 [Example 150, (8-(2,6-difluorobenzyl)-2,8-diazaspiro[4.5]decan-2-yl)(3,3-dimethyl-2,3-dihydro-1H-pyrrolo[3,2-b]pyridin-1-yl)methanone] | –
29 | < 0.1 µM | < 0.1 µM | Cc1ccc2c(n1)C(C)(C)CN2C(=O)N1CCC2(CCN(Cc3ccccc3F)CC2)CC1 [Example 160, (9-(2-fluorobenzyl)-3,9-diazaspiro[5.5]undecan-3-yl)(3,3,5-trimethyl-2,3-dihydro-1H-pyrrolo[3,2-b]pyridin-1-yl)methanone] | –
